Like-named read-outs stand apart in the source and are kept apart here.
Tested on: CK2 activity in cell extracts
Settings: then lysed

Work on CC(C)COC(=O)c1[nH]c2ccc(F)cc2c1-c1cn(CC2CCN(CCNS(=O)(=O)c3ccc(CC(C)C)cc3)CC2)nn1 [AB668] yielded an IC50 (786-O cells treated with the inhibitor) of 340 ± 70 nM and an IC50 (HEK293 cells treated with the inhibitor) of 600 ± 110 nM.
